Results taken from patent US8299267B2, “(3-hydroxy-4-amino-butan-2-yl) -3- (2-thiazol-2-yl-pyrrolidine-1-carbonyl) benzamide derivatives and related compounds as beta-secretase inhibitors for treating” (CoMentis, Inc., priority 2007, dated 2012).

Legend:
memapsin 2 = memapsin 2 (Homo sapiens, UniProt P56817); assay: Inhibition of memapsin 2 beta-secretase activity toward fluorogenic substrate FS-2; assay type: biochemical; settings: memapsin 2, pH 4, 37° C., 20 minutes pre-incubation, substrate FS-2; read-out: M2Ki
Method: Potency of compounds were determined by measurement of their inhibition of memapsin 2 activity toward a fluorescent substrate. Kinetic inhibition experiments were performed using the procedure as described in Ermolieff, et al. (Biochemistry 39:12450-12456 (2000), the teachings of which are incorporated hereby in their entirety). Briefly, assays were performed at pH 4, 37° C., by pre-incubation of memapsin 2 enzyme with compound for 20 minutes. Activity measurements were initiated by addition of a fluorogenic substrate FS-2 (Bachem Americas, Torrance, Calif.) MCA-SEVNLDAEFK-DNP (SEQ ID NO.: 2). The substrate was derived from 10 amino acids of the human amyloid precursor protein (APP), with the Swedish variant amino acids at the beta-secretase cleavage site. The terminal amino acid was modified from arginine to lysine to facilitate derivatization with a functional group for detection by autofluorescence. The amino acid sequence of the “core” peptide of the substrate is SEVNLDAEFK (SEQ ID NO.: 3). The amino terminus was derivatized with (7-methoxycoumarin-4-yl)acetyl (MCA), and the epsilon amine of the lysine side chain of the terminal residue (K in sequence SEVNLDAEFK (SEQ ID NO.: 4)) was derivatized with 2,4-dinitrophenyl (DNP).

[1] = test system: Aβ production in Chinese hamster ovary cells that over-express human APP695 with the London and Swedish mutations; assay: Cellular Aβ IC50 determination (Aβ40 sandwich ELISA); assay type: cell-based; settings: Cricetulus griseus; Aβ40 in CHO cells over-expressing human APP695, 24 h incubation
Method: The potency of compounds against memapsin 2 activity was determined in a cellular assay of Aβ production. […] Chinese hamster ovary cells that over-express human APP695 with the London and Swedish mutations were seeded in multi-well plates at 10% confluency. Compounds are dissolved in DMSO to concentrations near 1 mM, and diluted into culture media to a final concentration near 4 μM (final 0.4% DMSO). Compounds were diluted serially and applied to cells in multi-well plates 48 h after seeding. Incubation was continued in 5% CO2 at 37° C. for 24 h. Aliquots were removed and assayed for Aβ40 content using a sandwich ELISA (BioSource International). Amount of Aβ40 over the range of concentration of compounds, relative to control incubations, were fit to a 4-parameter IC50 model.

Sequence of memapsin 2 (P56817 46-501): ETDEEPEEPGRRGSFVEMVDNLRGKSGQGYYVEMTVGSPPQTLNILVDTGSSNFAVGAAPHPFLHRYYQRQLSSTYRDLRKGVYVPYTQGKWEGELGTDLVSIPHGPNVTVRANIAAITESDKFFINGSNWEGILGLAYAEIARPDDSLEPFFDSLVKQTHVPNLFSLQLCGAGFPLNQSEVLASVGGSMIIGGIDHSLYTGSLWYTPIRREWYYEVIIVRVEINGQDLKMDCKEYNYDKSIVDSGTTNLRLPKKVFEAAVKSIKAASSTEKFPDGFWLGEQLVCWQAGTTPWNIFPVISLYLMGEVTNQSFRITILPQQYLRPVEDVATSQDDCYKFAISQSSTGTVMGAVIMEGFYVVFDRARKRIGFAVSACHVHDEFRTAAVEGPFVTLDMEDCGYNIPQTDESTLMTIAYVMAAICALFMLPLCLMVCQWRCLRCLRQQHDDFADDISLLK

Row | Ki (memapsin 2) | IC50 [1] | Compound
1 | 101 to 200 nM | < 300 nM | Cc1csc([C@H]2CCCN2C(=O)c2cc(C(=O)N[C@@H](Cc3ccccc3)[C@H](O)CNCc3cccc(C(F)(F)F)c3)cc(-c3ccc(F)nc3)n2)n1 [Compound 88, 6′-fluoro-N-((2S,3R)-3-hydroxy-1-phenyl-4-(3-(trifluoromethyl)benzylamino)butan-2-yl)-6-((R)-2-(4-methylthiazol-2-yl)pyrrolidine-1-carbonyl)-2,3′-bipyridine-4-carboxamide]
2 | < 100 nM | < 300 nM | Cc1coc([C@H]2CCCN2C(=O)c2cc(C(=O)N[C@@H](Cc3ccccc3)[C@H](O)CNCc3cccc(C(F)(F)F)c3)ccn2)n1 [Compound 94, N-((2S,3R)-3-hydroxy-1-phenyl-4-(3-(trifluoromethyl)benzylamino)butan-2-yl)-2-((R)-2-(4-methyloxazol-2-yl)pyrrolidine-1-carbonyl)isonicotinamide]
3 | < 100 nM | < 300 nM | Cc1csc([C@H]2CCCN2C(=O)c2cccc(C(=O)N[C@@H](Cc3ccccc3)[C@H](O)CNCc3cc(C)on3)c2)n1 [Compound 66, N-((2S,3R)-3-hydroxy-4-((5-methylisoxazol-3-yl)methylamino)-1-phenylbutan-2-yl)-3-((R)-2-(4-methylthiazol-2-yl)pyrrolidine-1-carbonyl)benzamide]
4 | < 100 nM | < 300 nM | CNc1cc(CNC[C@@H](O)[C@H](Cc2ccccc2)NC(=O)c2cccc(C(=O)N3CCC[C@@H]3c3nc(C)cs3)c2)cc(C(F)(F)F)c1 [Compound 85, N-((2S,3R)-3-hydroxy-4-(3-(methylamino)-5-(trifluoromethyl)benzylamino)-1-phenylbutan-2-yl)-3-((R)-2-(4-methylthiazol-2-yl)pyrrolidine-1-carbonyl)benzamide]
5 | < 100 nM | < 300 nM | Cc1csc([C@H]2CCCN2C(=O)c2cc(CF)cc(C(=O)N[C@@H](Cc3ccccc3)[C@H](O)CNCc3cncc(C(C)(C)F)c3)c2)n1 [Compound 50, 3-(fluoromethyl)-N-((2S,3R)-4-((5-(2-fluoropropan-2-yl)pyridin-3-yl)methylamino)-3-hydroxy-1-phenylbutan-2-yl)-5-((R)-2-(4-methylthiazol-2-yl)pyrrolidine-1-carbonyl)benzamide]
6 | < 100 nM | < 300 nM | Cc1csc([C@H]2CCCN2C(=O)c2cc(C(=O)N[C@@H](Cc3ccccc3)[C@H](O)CNCc3cncc(C(C)C)c3)cc(N(C)C)c2)n1 [Compound 29, 3-(dimethylamino)-N-((2S,3R)-3-hydroxy-4-((5-isopropylpyridin-3-yl)methylamino)-1-phenylbutan-2-yl)-5-((R)-2-(4-methylthiazol-2-yl)pyrrolidine-1-carbonyl)benzamide]
7 | < 100 nM | < 300 nM | Cc1csc([C@H]2CCCN2C(=O)c2cc(C(=O)N[C@@H](Cc3ccccc3)[C@H](O)CNCc3cncc(C(C)C)c3)cc(-c3ncco3)c2)n1 [Compound 25, N-((2S,3R)-3-hydroxy-4-((5-isopropylpyridin-3-yl)methylamino)-1-phenylbutan-2-yl)-3-((R)-2-(4-methylthiazol-2-yl)pyrrolidine-1-carbonyl)-5-(oxazol-2-yl)benzamide]

Further lines, the compound ahead of its results:

Row | Compound | Ki (memapsin 2) | IC50 [1]
8 | Cc1cc(C(=O)N[C@@H](Cc2ccccc2)[C@H](O)CNCc2cncc(C(C)C)c2)cc(C(=O)N2CCC[C@@H]2c2nc(C)cs2)c1 [Compound 52, N-((2S,3R)-3-hydroxy-4-((5-isopropylpyridin-3-yl)methylamino)-1-phenylbutan-2-yl)-3-methyl-5-((R)-2-(4-methylthiazol-2-yl)pyrrolidine-1-carbonyl)benzamide] | < 100 nM | < 300 nM
9 | Cc1coc([C@H]2CCCN2C(=O)c2cccc(C(=O)N[C@@H](Cc3ccccc3)[C@H](O)CNCc3cncc(C(F)(F)F)c3)c2)n1 [Compound 103, N-((2S,3R)-3-hydroxy-1-phenyl-4-((5-(trifluoromethyl)pyridin-3-yl)methylamino)butan-2-yl)-3-((R)-2-(4-methyloxazol-2-yl)pyrrolidine-1-carbonyl)benzamide] | < 100 nM | < 300 nM
10 | Cc1csc([C@H]2CCCN2C(=O)c2cc(C(=O)N[C@@H](Cc3ccccc3)[C@H](O)CNCc3cccc(C(F)(F)F)c3)cc(-c3ccco3)n2)n1 [Compound 75, 2-(furan-2-yl)-N-((2S,3R)-3-hydroxy-1-phenyl-4-(3-(trifluoromethyl)benzylamino)butan-2-yl)-6-((R)-2-(4-methylthiazol-2-yl)pyrrolidine-1-carbonyl)isonicotinamide] | < 100 nM | < 300 nM
11 | Cc1coc([C@H]2CCCN2C(=O)c2cccc(C(=O)N[C@@H](Cc3ccccc3)[C@H](O)CNCc3cccc(C(F)(F)F)c3)c2)n1 [Compound 35, N-((2S,3R)-3-hydroxy-1-phenyl-4-(3-(trifluoromethyl)benzylamino)butan-2-yl)-3-((R)-2-(4-methyloxazol-2-yl)pyrrolidine-1-carbonyl)benzamide] | < 100 nM | < 300 nM
12 | Cc1csc([C@H]2CCCN2C(=O)c2cc(C(=O)N[C@@H](Cc3ccccc3)[C@H](O)CNCc3cc(Cl)cc(Cl)c3)cc(N(C)C)c2)n1 [Compound 48, N-((2S,3R)-4-(3,5-dichlorobenzylamino)-3-hydroxy-1-phenylbutan-2-yl)-3-(dimethylamino)-5-((R)-2-(4-methylthiazol-2-yl)pyrrolidine-1-carbonyl)benzamide] | < 100 nM | < 300 nM
13 | COc1cccc(CNC[C@@H](O)[C@H](Cc2ccccc2)NC(=O)c2cccc(C(=O)N3CCCC[C@@H]3c3nc(C)cs3)c2)c1 [Compound 5, N-((2S,3R)-3-hydroxy-4-(3-methoxybenzylamino)-1-phenylbutan-2-yl)-3-((R)-2-(4-methylthiazol-2-yl)piperidine-1-carbonyl)benzamide] | < 100 nM | > 501 nM
14 | Cc1csc([C@H]2CCCN2C(=O)c2cccc(C(=O)N[C@@H](Cc3ccccc3)[C@H](O)CNCc3cc(O)cc(C(C)C)c3)c2)n1 [Compound 24, N-((2S,3R)-3-hydroxy-4-(3-hydroxy-5-isopropylbenzylamino)-1-phenylbutan-2-yl)-3-((R)-2-(4-methylthiazol-2-yl)pyrrolidine-1-carbonyl)benzamide] | < 100 nM | < 300 nM
15 | Cc1coc([C@H]2CCCN2C(=O)c2cc(CF)cc(C(=O)N[C@@H](Cc3ccccc3)[C@H](O)CNCc3cncc(C(C)C)c3)c2)n1 [Compound 77, 3-(fluoromethyl)-N-((2S,3R)-3-hydroxy-4-((5-isopropylpyridin-3-yl)methylamino)-1-phenylbutan-2-yl)-5-((R)-2-(4-methyloxazol-2-yl)pyrrolidine-1-carbonyl)benzamide] | < 100 nM | < 300 nM
16 | Cc1csc([C@H]2CCCN2C(=O)c2cc(C(=O)N[C@@H](Cc3ccccc3)[C@H](O)CNCc3cccc(Cl)c3)cc(N(C)C)c2)n1 [Compound 47, N-((2S,3R)-4-(3-chlorobenzylamino)-3-hydroxy-1-phenylbutan-2-yl)-3-(dimethylamino)-5-((R)-2-(4-methylthiazol-2-yl)pyrrolidine-1-carbonyl)benzamide] | < 100 nM | < 300 nM
17 | COc1cccc([C@H](C)NC[C@@H](O)[C@H](Cc2ccccc2)NC(=O)c2cccc(C(=O)N3CCC[C@@H]3c3nc(C)cs3)c2)c1 [Compound 22, N-((2S,3R)-3-hydroxy-4-((S)-1-(3-methoxyphenyl)ethylamino)-1-phenylbutan-2-yl)-3-((R)-2-(4-methylthiazol-2-yl)pyrrolidine-1-carbonyl)benzamide] | < 100 nM | < 300 nM
18 | COc1cc(C(=O)N[C@@H](Cc2ccccc2)[C@H](O)CNCc2cccc(Cl)c2)cc(C(=O)N2CCC[C@@H]2c2nc(C)cs2)c1 [Compound 18, N-((2S,3R)-4-(3-chlorobenzylamino)-3-hydroxy-1-phenylbutan-2-yl)-3-methoxy-5-((R)-2-(4-methylthiazol-2-yl)pyrrolidine-1-carbonyl)benzamide] | < 100 nM | < 300 nM
19 | Cc1coc([C@H]2CCCN2C(=O)c2cccc(C(=O)N[C@@H](Cc3ccccc3)[C@H](O)CNCc3cncc(C(C)C)c3)c2)n1 [Compound 34, N-((2S,3R)-3-hydroxy-4-((5-isopropylpyridin-3-yl)methylamino)-1-phenylbutan-2-yl)-3-((R)-2-(4-methyloxazol-2-yl)pyrrolidine-1-carbonyl)benzamide] | < 100 nM | < 300 nM
20 | C=C(C)c1cccc(CNC[C@@H](O)[C@H](Cc2ccccc2)NC(=O)c2cccc(C(=O)N3CCC[C@@H]3c3nc(C)co3)c2)c1 [Compound 105, N-((2S,3R)-3-hydroxy-1-phenyl-4-(3-(prop-1-en-2-yl)benzylamino)butan-2-yl)-3-((R)-2-(4-methyloxazol-2-yl)pyrrolidine-1-carbonyl)benzamide] | < 100 nM | < 300 nM
